Experiments:
[1] = system: acute and chronic liver allograft rejection; details: humans; compared with previous compounds; cited from earlier work
[2] = system: hepatocytes in culture; details: literature (Francavilla et al); cited from earlier work
[3] = system: hepatocytes / rat liver regeneration; assay: Rat liver regeneration (3H-thymidine incorporation into hepatic DNA and hepatocyte mitosis) after sham operation or 40%/70% hepatectomy; format: in vivo, rat (Fisher 344); details: for 3H-thymidine incorporation / Proportion of hepatocytes in mitosis: 4 days, mean (SE)
Experimental: Adult male inbred Fisher 344 rats weighing 180-200 g were purchased from Hilltop Lab Animals Inc (Scottdale, Pa.). The animals were given standard rat laboratory diet and water ad libitum in a temperature and light controlled room (light 0730-1930). […] Animals in groups 3 and 4 had sham operations in which the liver was manipulated at laparotomy. Food and drink were allowed immediately. Parenteral fluid and electrolyte support were not required.
24 h after the hepatectomies, 185×10^4 Bq ^3 H-thymidine was administered to all rats by intraperitoneal injection. The rats, including groups 1 and 2, were killed 2 h later by guillotine. Extraction and purification of hepatic DNA were done with the method of Ove et al (Liver and hormones, New York: Raven Press, 1987:265-76) and DNA content was measured with calf thymus DMA (Sigma) as standard. Specimens from each liver were prepared for histological examination with hematoxylin and eosin and the proportion of hepatocytes in mitosis was counted. All results are means and SE.

[4] = system: midzonal hepatocytes; assay: Eck fistula dogs, left portal vein infusion: electron microscopy of hepatocyte organelles; format: in vivo, dog (beagle); details: for Organelle volume in average midzonal hepatocytes, Lipids, Left / Organelle volume in average midzonal hepatocytes, Lysosomes, Left / Organelle volume in average midzonal hepatocytes, Microbodies, Left / Organelle volume in average midzonal hepatocytes, Mitochondria, Left / Area of rough endoplasmic reticulum per average midzonal hepatocyte, Left / Area of smooth endoplasmic reticulum per average midzonal hepatocyte, Left: left (infused) lobe; for Organelle volume in average midzonal hepatocytes, Lipids, Left / Organelle volume in average midzonal hepatocytes, Lysosomes, Left / Organelle volume in average midzonal hepatocytes, Microbodies, Left / Organelle volume in average midzonal hepatocytes, Mitochondria, Left / Area of rough endoplasmic reticulum per average midzonal hepatocyte, Left / Area of smooth endoplasmic reticulum per average midzonal hepatocyte, Left / Organelle volume in average midzonal hepatocytes, Lipids, Right / Organelle volume in average midzonal hepatocytes, Lysosomes, Right / Organelle volume in average midzonal hepatocytes, Microbodies, Right / Organelle volume in average midzonal hepatocytes, Mitochondria, Right / Area of rough endoplasmic reticulum per average midzonal hepatocyte, Right / Area of smooth endoplasmic reticulum per average midzonal hepatocyte, Right: mean +/- SD; for Area of rough endoplasmic reticulum per average midzonal hepatocyte, Left: left vs right 0.0001; for Organelle volume in average midzonal hepatocytes, Lipids, Right / Organelle volume in average midzonal hepatocytes, Lysosomes, Right / Organelle volume in average midzonal hepatocytes, Microbodies, Right / Organelle volume in average midzonal hepatocytes, Mitochondria, Right / Area of rough endoplasmic reticulum per average midzonal hepatocyte, Right / Area of smooth endoplasmic reticulum per average midzonal hepatocyte, Right: right lobe
Experimental: Twenty adult female beagle dogs underwent Eck fistula (Starzl et al, Lancet, 1976, 1:821-25). After performing a large side to side portacaval shunt, the left and right portal vein branches were ligated. A small infusion catheter was tied into the left branch and led through the abdominal wall and subcutaneously to a battery charged infusion pump that was incorporated into a non-restraining body cast. A constant infusion was started of the control or test fluids at the volume of 20 to 30 ml/day. Oral fluids and diet were allowed ad lib. Four days later, the animals were administered 0.2 mCi/kg (CH3 -^3 H)-thymidine with specific activity of 80-90 Ci/MMol (New England Nuclear, Boston). Two hours later, the dogs were anesthetized and killed.
For studies of the organelles, small cubes of each hepatic sample were taken for electron microscopy. The tissue was post-fixed in glutaraldehyde followed by osmic acid. After embedding in Polarbed. 812 resin, ultrathin sections were cut, stained with lead citrate and examined in a Philip's 300 electron microscope. Measurements of the organelles were made on electron micrographs by Loud's method (Loud, J Cell Biol, 1968, 37:27-46).
Results are expressed as mean±standard deviation (SD). The Student's t-test was employed in individual experimental groups to compare differences between right and left lobes or between groups. A p value less than 0.05 was considered to be significant.

[5] = group 2: FK 506 1 mg/kg IM, no operation
[6] = group 10: FK 506 1 mg/kg IM, 70% hepatectomy, p < 0.01 vs group 8

For `C=CCC1C=C(C)CC(C)CC(OC)C2OC(O)(C(=O)C(=O)N3CCCCC3C(=O)OC(C(C)=CC3CCC(O)C(OC)C3)C(C)C(O)CC1=O)C(C)CC2OC` (centres unmarked) [FK 506], the “acute and chronic liver allograft rejection” value [1] is listed as “prevent acute and chronic liver allograft rejection in humans more reliably and completely than has been possible with previous compounds”, the “direct effect on hepatocytes in culture” value [2] is listed as “no direct effect” and the “regeneration after hepatectomy compared with controls” value ([3]; 4 days pretreatment, intramuscular FK 506 or oral cyclosporin) is listed as “significantly augmented compared with controls”. The “hepatocyte mitosis and DNA synthesis in sham operation group” value ([3]; FK 506 added to sham operation) was “further and significantly increased”, the 3H-thymidine incorporation [3, 5] was 3.2 × 10^3 cpm/mg DNA and the “Proportion of hepatocytes in mitosis” value [3, 5] was 1.7%. The 3H-thymidine incorporation ([3]; group 4: FK 506 1 mg/kg IM, sham operation, p < 0.005 vs groups 1, 2 and 3) was 10.5 × 10^3 cpm/mg DNA, the “Proportion of hepatocytes in mitosis” value ([3]; group 4: FK 506 1 mg/kg IM, sham operation, p < 0.05 vs groups 1 and 2) was 9.5% and the 3H-thymidine incorporation ([3]; group 6: FK 506 1 mg/kg IM, 40% hepatectomy, p < 0.001 vs group 5) was 32.4 × 10^3 cpm/mg DNA. For the same molecule, the 3H-thymidine incorporation [3, 6] was 242.0 × 10^3 cpm/mg DNA, the “Proportion of hepatocytes in mitosis” value [3, 6] was 59.0% and the “regeneration effect, FK 506 compared with cyclosporin” value ([3]; group 10 compared with group 9, 70% hepatectomy) was “greater with FK 506 than with cyclosporin”. For the same molecule, the “resting hepatocyte mitosis or DNA synthesis” value ([3]; unoperated rats) was “did not increase”, the “Organelle volume in average midzonal hepatocytes, Lipids, Left” value ([4]; 0.01 mg/kg/day, left vs right p 0.0012) was 23.3 +/- 8.8 uM^3 and the “Organelle volume in average midzonal hepatocytes, Lysosomes, Left” value ([4]; 0.01 mg/kg/day, left vs right p 0.0017) was 62.3 +/- 15.1 uM^3. For the same molecule, the “Organelle volume in average midzonal hepatocytes, Microbodies, Left” value ([4]; 0.01 mg/kg/day, left vs right p 0.0080) was 99.2 +/- 11.8 uM^3, the “Organelle volume in average midzonal hepatocytes, Mitochondria, Left” value ([4]; 0.01 mg/kg/day, left vs right p 0.1903) was 1233.7 +/- 222.4 uM^3 and the “Area of rough endoplasmic reticulum per average midzonal hepatocyte, Left” value ([4]; 0.01 mg/kg/day, p vs vehicle 0.0000) was 26332 +/- 1483 uM^2. For the same molecule, the “Area of smooth endoplasmic reticulum per average midzonal hepatocyte, Left” value ([4]; 0.01 mg/kg/day, p vs vehicle 0.0661, left vs right 0.0000) was 18433 +/- 535 uM^2, the “Organelle volume in average midzonal hepatocytes, Lipids, Right” value ([4]; 0.01 mg/kg/day) was 81.0 +/- 15.1 uM^3 and the “Organelle volume in average midzonal hepatocytes, Lysosomes, Right” value ([4]; 0.01 mg/kg/day) was 162.6 +/- 48.9 uM^3. The “Organelle volume in average midzonal hepatocytes, Microbodies, Right” value ([4]; 0.01 mg/kg/day) was 173.8 +/- 39.6 uM^3, the “Organelle volume in average midzonal hepatocytes, Mitochondria, Right” value ([4]; 0.01 mg/kg/day) was 1429.5 +/- 331.2 uM^3 and the “Area of rough endoplasmic reticulum per average midzonal hepatocyte, Right” value ([4]; 0.01 mg/kg/day, p vs vehicle 0.0019) was 18697 +/- 1010 uM^2. The “Area of smooth endoplasmic reticulum per average midzonal hepatocyte, Right” value ([4]; 0.01 mg/kg/day, p vs vehicle 0.1092) was 23337 +/- 902 uM^2, the “Organelle volume in average midzonal hepatocytes, Lysosomes, Left” value ([4]; 0.1 mg/kg/day, left vs right p 0.0000) was 59.6 +/- 15.6 uM^3 and the “Organelle volume in average midzonal hepatocytes, Lipids, Left” value ([4]; 0.1 mg/kg/day, left vs right p 0.0011) was 22.8 +/- 6.7 uM^3. The “Organelle volume in average midzonal hepatocytes, Microbodies, Left” value ([4]; 0.1 mg/kg/day, left vs right p 0.0025) was 86.3 +/- 11.5 uM^3, the “Organelle volume in average midzonal hepatocytes, Mitochondria, Left” value ([4]; 0.1 mg/kg/day, left vs right p 0.2529) was 1288.5 +/- 236.2 uM^3 and the “Area of rough endoplasmic reticulum per average midzonal hepatocyte, Left” value ([4]; 0.1 mg/kg/day, p vs vehicle 0.0001) was 29889 +/- 1117 uM^2. For the same molecule, the “Area of smooth endoplasmic reticulum per average midzonal hepatocyte, Left” value ([4]; 0.1 mg/kg/day, p vs vehicle 0.0703, left vs right 0.0018) was 18688 +/- 498 uM^2, the “Organelle volume in average midzonal hepatocytes, Lipids, Right” value ([4]; 0.1 mg/kg/day) was 83.8 +/- 19.7 uM^3 and the “Organelle volume in average midzonal hepatocytes, Lysosomes, Right” value ([4]; 0.1 mg/kg/day) was 187.6 +/- 14.8 uM^3. For the same molecule, the “Organelle volume in average midzonal hepatocytes, Microbodies, Right” value ([4]; 0.1 mg/kg/day) was 172.5 +/- 34.2 uM^3, the “Organelle volume in average midzonal hepatocytes, Mitochondria, Right” value ([4]; 0.1 mg/kg/day) was 1439.3 +/- 115.4 uM^3 and the “Area of rough endoplasmic reticulum per average midzonal hepatocyte, Right” value ([4]; 0.1 mg/kg/day, p vs vehicle 0.0007) was 20325 +/- 975 uM^2. For the same molecule, the “Area of smooth endoplasmic reticulum per average midzonal hepatocyte, Right” value ([4]; 0.1 mg/kg/day, p vs vehicle 0.0725) was 22747 +/- 1305 uM^2 and the “preservation of the RER in the right lobes” value ([4]; 1 mg/kg/day, compared to vehicle controls) was “better preservation of the RER”.

Reference: US5196437A, “Method for treating hepatic diseases and regenerating liver tissue using FK 506 and related compounds” (Fujisawa Pharmaceutical Company, Ltd., priority 1990, dated 1993)
